Test results from patent US12275731B2, “Azaindole inhibitors of wild-type and mutant forms of LRRK2” (DANA-FARBER CANCER INSTITUTE, INC., priority 2018, dated 2025).

How the values were obtained:
Test in all cases: KinomeScan profiling
Format in all cases: binding
[1] = biological target: T1, RSK4(Kin.Dom.1-N-terminal) (Homo sapiens, UniProt Q9UK32); settings: read-out: % control
T1 construct: ribosomal S6 Kinase 4 (RSK4)(Kin.Dom.1-N-terminal)
In short: (§1)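 Percent-of-control values derive from RLU, calculated as (test − positive)/(negative − positive) × 100, where DMSO defines 100% and a positive control compound defines 0%. Each compound was tested at 1 μM in the 468-kinase panel; sub-35% readings indicate activity.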

[2] = biological target: T2, CDKL5 (Homo sapiens, UniProt O76039); settings: CDKL5, 1 μM; read-out: % control
T2 sequence (O76039 1-960): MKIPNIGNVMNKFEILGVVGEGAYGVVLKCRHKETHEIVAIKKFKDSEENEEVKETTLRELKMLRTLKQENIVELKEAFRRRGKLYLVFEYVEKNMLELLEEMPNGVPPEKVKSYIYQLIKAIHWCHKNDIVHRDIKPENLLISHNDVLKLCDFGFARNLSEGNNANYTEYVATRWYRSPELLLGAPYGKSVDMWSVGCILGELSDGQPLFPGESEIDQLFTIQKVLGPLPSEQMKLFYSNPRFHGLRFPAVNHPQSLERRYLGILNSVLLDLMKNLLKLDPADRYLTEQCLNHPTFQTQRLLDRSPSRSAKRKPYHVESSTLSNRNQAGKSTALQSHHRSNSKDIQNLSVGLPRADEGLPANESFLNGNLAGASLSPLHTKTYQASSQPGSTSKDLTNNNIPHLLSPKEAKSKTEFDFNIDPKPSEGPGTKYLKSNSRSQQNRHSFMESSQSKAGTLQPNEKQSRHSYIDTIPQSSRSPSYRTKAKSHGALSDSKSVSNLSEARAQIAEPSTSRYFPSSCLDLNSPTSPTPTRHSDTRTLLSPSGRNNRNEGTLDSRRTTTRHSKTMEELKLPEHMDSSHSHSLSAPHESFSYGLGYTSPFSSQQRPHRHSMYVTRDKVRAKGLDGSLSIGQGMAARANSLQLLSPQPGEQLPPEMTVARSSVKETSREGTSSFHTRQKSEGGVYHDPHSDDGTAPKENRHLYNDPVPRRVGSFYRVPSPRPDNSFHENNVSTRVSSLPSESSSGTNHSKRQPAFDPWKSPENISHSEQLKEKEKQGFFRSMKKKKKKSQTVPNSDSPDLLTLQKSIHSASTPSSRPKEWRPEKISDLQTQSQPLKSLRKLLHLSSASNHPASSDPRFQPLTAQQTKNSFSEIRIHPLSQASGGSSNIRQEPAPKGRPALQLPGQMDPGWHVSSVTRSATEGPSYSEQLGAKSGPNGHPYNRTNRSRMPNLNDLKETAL
In short: as §1

[3] = biological target: MST4 (Homo sapiens, UniProt Q9P289); settings: MST4, 1 μM; read-out: % control
Chain of MST4 (Q9P289 whole entry): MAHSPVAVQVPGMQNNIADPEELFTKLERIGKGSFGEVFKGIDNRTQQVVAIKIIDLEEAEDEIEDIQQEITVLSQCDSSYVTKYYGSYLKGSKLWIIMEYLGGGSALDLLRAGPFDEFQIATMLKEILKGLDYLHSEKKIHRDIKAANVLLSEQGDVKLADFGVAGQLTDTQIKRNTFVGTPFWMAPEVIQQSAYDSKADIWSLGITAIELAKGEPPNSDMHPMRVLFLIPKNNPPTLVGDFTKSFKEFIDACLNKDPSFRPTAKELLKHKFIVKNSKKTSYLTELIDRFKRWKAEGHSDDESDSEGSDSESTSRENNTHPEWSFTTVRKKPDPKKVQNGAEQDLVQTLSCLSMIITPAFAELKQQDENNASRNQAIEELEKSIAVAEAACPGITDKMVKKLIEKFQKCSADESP
In short: as §1

[4] = biological target: PRKR (Homo sapiens, UniProt P19525); settings: read-out: % control
Chain of PRKR (P19525 whole entry): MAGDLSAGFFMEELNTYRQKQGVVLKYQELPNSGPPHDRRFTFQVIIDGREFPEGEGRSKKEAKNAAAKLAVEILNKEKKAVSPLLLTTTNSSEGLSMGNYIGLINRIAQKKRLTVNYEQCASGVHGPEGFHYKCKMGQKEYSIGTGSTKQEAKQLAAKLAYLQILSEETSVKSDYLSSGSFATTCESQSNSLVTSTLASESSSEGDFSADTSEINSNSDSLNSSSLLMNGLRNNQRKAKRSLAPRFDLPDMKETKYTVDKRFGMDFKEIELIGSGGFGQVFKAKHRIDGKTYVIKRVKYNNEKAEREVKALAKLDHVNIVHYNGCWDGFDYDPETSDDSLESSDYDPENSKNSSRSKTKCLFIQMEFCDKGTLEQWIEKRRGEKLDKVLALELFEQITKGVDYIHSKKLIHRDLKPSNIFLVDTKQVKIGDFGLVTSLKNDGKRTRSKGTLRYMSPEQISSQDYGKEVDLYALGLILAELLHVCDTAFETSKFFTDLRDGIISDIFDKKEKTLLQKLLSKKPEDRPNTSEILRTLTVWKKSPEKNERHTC
In short: as §1

[5] = biological target: PLK3 (Homo sapiens, UniProt Q9H4B4); settings: PLK3, 1 μM; read-out: % control
Chain of PLK3 (Q9H4B4 whole entry): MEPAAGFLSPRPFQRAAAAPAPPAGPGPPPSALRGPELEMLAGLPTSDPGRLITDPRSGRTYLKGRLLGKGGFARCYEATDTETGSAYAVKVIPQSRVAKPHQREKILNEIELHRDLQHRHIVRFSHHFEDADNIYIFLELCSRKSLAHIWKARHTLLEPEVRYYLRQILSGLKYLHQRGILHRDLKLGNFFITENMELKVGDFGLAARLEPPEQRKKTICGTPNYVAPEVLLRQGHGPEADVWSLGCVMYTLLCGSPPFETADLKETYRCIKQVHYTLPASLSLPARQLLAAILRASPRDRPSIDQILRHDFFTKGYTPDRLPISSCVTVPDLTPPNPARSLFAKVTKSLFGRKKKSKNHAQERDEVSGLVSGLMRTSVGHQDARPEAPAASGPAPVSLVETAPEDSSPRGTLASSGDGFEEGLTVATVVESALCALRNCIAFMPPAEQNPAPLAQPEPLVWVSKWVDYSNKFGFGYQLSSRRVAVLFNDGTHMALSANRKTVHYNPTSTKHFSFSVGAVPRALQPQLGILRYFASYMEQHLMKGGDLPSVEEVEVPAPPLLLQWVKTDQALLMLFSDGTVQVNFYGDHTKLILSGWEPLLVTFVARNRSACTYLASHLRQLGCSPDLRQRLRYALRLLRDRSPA
In short: as §1

[6] = biological target: T3, GRK3 (Homo sapiens, UniProt P35626); settings: GRK3, 1 μM; read-out: % control
T3 sequence (P35626 1-688): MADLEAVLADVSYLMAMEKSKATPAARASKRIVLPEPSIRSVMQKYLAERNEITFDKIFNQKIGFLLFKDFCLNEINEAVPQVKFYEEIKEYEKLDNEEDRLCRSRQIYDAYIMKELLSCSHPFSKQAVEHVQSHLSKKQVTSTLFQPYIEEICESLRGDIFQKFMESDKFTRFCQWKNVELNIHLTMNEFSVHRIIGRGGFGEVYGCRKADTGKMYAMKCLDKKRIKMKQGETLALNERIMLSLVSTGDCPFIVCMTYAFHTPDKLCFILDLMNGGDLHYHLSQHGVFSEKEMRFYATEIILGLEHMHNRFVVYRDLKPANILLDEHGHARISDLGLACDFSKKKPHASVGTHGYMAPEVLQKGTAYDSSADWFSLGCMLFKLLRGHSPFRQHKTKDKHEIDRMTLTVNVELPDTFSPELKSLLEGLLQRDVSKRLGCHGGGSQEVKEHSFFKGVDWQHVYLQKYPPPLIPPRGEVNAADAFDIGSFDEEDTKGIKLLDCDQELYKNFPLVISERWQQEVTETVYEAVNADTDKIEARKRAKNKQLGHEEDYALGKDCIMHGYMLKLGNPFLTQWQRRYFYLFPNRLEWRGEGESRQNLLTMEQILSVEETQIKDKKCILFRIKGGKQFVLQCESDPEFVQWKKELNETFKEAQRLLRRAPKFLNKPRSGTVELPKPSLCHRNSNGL
In short: as §1

[7] = biological target: T4, MAP3K2 (Homo sapiens, UniProt Q9Y2U5); settings: MAP3K2, 1 μM; read-out: % control
T4 sequence (Q9Y2U5 1-619): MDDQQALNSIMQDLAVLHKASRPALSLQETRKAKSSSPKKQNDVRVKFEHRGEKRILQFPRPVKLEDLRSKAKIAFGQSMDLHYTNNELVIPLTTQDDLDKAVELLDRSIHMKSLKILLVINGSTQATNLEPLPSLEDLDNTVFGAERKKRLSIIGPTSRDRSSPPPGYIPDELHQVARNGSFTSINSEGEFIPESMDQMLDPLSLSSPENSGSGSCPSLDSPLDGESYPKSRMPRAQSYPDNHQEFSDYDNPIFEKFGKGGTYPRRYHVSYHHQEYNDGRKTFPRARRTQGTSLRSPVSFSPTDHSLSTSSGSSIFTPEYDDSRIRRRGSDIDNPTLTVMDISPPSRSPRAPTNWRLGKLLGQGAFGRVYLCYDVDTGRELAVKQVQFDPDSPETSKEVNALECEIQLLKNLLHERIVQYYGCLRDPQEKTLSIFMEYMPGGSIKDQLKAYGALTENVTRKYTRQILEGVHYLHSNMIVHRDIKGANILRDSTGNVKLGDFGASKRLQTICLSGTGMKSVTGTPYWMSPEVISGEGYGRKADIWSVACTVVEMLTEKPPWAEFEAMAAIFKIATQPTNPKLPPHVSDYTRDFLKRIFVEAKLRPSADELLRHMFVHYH
In short: as §1

[8] = biological target: T5, BMPR1A (Homo sapiens, UniProt P36894); settings: read-out: % control
T5 construct: purchased KinomeScan®
T5 sequence (P36894 24-532): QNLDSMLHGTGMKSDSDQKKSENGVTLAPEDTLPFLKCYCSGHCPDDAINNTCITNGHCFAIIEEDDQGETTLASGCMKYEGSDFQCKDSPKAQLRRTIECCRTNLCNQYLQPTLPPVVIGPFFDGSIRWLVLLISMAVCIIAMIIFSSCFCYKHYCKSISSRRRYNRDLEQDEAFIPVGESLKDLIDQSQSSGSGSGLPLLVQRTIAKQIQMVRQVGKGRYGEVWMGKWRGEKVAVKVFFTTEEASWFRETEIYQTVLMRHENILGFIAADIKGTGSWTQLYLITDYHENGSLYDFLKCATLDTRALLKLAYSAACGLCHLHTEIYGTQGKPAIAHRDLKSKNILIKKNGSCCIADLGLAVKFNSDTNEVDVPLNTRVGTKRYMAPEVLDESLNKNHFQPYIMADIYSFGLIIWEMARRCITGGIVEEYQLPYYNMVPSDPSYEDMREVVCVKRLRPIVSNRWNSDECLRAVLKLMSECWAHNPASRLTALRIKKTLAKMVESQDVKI
In short: as §1

T1 sequence (Q9UK32 73-330 limits assumed): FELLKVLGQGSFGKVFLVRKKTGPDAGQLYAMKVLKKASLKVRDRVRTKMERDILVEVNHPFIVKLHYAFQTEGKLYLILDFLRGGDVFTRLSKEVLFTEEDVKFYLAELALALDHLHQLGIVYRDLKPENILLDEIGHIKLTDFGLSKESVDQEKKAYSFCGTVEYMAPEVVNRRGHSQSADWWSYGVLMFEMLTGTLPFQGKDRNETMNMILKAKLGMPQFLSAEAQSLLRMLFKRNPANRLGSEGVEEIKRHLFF

SMILES | remaining binding at 1 µM [1] [%] | remaining binding at 1 µM [2] [%] | remaining binding at 1 µM [3] [%] | remaining binding at 1 µM [4] [%] | remaining binding at 1 µM [5] [%] | remaining binding at 1 µM [6] [%] | remaining binding at 1 µM [7] [%] | remaining binding at 1 µM [8] [%]
CNc1c(-c2cnn([C@H]3CCN(C(C)=O)C[C@@H]3F)c2)cnc2[nH]cc(Cl)c12 [Compound 77, 1-((3S,4S)-4-(4-(3-chloro-4-(methylamino)-1H-pyrrolo[2,3-b]pyridin-5-yl)-1H-pyrazol-1-yl)-3-fluoropiperidin-1-yl)ethan-1-one] | 32 | 94 | 67 | 68 | 78 | 93 | 25 | 93
CNc1c(-c2ccc(C(=O)N3CCC(N4CCOCC4)CC3)cc2)cnc2[nH]cc(Cl)c12 [Compound 96, (4-(3-chloro-4-(methylamino)-1H-pyrrolo[2,3-b]pyridin-5-yl)phenyl)(4-morpholinopiperidin-1-yl)methanone] | 77 | 92 | 99 | 70 | 99 | 92 | 29 | 66
O=C(c1ccc(-c2cnc3[nH]cc(Cl)c3c2NC2CCCC2)cc1)N1CCC(N2CCOCC2)CC1 [Compound 101, (4-(3-chloro-4-(cyclopentylamino)-1H-pyrrolo[2,3-b]pyridin-5-yl)phenyl)(4-morpholinopiperidin-1-yl)methanone] | 100 | 70 | 100 | 82 | 84 | 94 | 35 | 87
